Here are results for one molecule from patent US20230235397A1, “METHODS FOR CLASSIFICATION AND TREATMENT OF PSYCHOTIC DISORDER SUBJECTS” (CENTRE HOSPITALIER UNIVERSITAIRE VAUDOIS (CHUV), priority 2019, published 2023).

The assay relates to Gclm-KO+GBR mice. Nature of the assay: MitoQ treatment of Gclm-KO+GBR mice (oxidative stress model), markers in anterior cingulate cortex. The format is in vivo. From the text:
Treatment with MitoQ (P21-P40) in Gclm-KO mice treated with GBR12909 normalizes NIX, FUNDC1 and LC3B expression levels as well as miR-137 expression intensity when compared to values observed for wild-type mice (FIG. 7). […] Thus, MitoQ has been unexpectedly found to be useful in reversing the miR-137 overexpression, mitophagy and parvalbumin interneuron impairment induced by oxidative stress.
Example 9 relates to an animal model of oxidative stress. Oxidative stress elicits mitophagy in the anterior cingulated cortex (ACC) of Gclm-KO mice (transgenic mice carrying permanent defect in glutathione GSH synthesis). […] Because extranuclear localization of 8-oxo-dG labeling was observed, it could be surmised that mitochondrial DNA (mtDNA) was affected. […] In comparison with WT mice (Gclm-WT+PBS, wherein PBS refers to phosphate-buffered saline, a common buffer used in these experiments as vehicle), levels of the mitophagy receptors NIX and FUNDC1 and of the autophagosome LC3B were reduced in the ACC of Gclm-KO mice (Gclm-KO+PBS, at P40). […] Taken together, these observations are consistent with an oxidative stress-induced mitophagy deficit in prefrontal parvalbumin interneurons.
It has been shown that miR-137 plays a functional role in modulating synaptic function and in regulating the expression of the NIX and FUNDC1 mitophagy receptors.
In view of the detrimental effects of oxidative stress on integrity of parvalbumin interneurons, miR-137 expression level as well as mitophagy during preweaning and pubertal stages of development, it was evaluated whether MitoQ treatment, a selective mitochondria targeted-antioxidant, could rescue these deficits in young KO mice. Treatment with MitoQ (P21-P40) in Gclm-KO+GBR mice normalized NIX, FUNDC1 and LC3B expression levels as well as miR-137 expression intensity, when compared to WT values (FIG. 7). […] Thus, MitoQ can reverse the oxidative stress induced miR-137 overexpression, mitophagy and parvalbumin interneuron impairment, highlighting that the upregulation of miR-137 and subsequent mitophagy defect constitutes the molecular mechanism underlying the oxidative stress-induced parvalbumin interneuron impairment.

The mark [1] stands for this setting: ACC of Gclm-KO+GBR animals, following treatment with MitoQ.
The mark [2] stands for this setting: MitoQ P21-P40, Gclm-KO+GBR mice, ACC, compared to WT values (FIG. 7).

Consider `COC1=C(OC)C(=O)C(CCCCCCCCCC[PH](c2ccccc2)(c2ccccc2)c2ccccc2)=C(C)C1=O` [MitoQ, mitoquinone], for which, under setting [1], the “abnormalities in cell body numbers of parvalbumin interneurons” value is recorded as “restored to WT levels” and the “staining intensity of parvalbumin interneuron processes” value is reported as “restored to WT levels”. Moreover, under setting [2], the FUNDC1 expression level entry was “normalized”, the LC3B expression level result was “normalized”, the NIX expression level result is “normalized” and the miR-137 expression intensity entry was “normalized”.
